Experimental data taken from patent publication US6911430B2, “Compositions and methods for treating ileus” (VipoGen, LLC, priority 2003, dated 2005).
Ends that are not written are not given here.

System: Male Wistar rats
Assay: Intestinal transit of Evans blue after laparotomy and manipulation of the intestines (postoperative ileus model)
Format: in vivo, rat
Settings: single peptide approx. 150 μg per kg i.v. tail vein bolus 1 minute before surgery, skin incision, 20 minute transit period, mean
Procedure: Male Wistar rats are commonly used to study the mechanisms that regulate gastrointestinal function by several laboratories across the United States and the world. This model is well characterized experimentally and has the added advantage of providing results in a short time frame, limiting the animal's distress.
Two hours prior to start of surgery, the required amount of peptide was measured to the nearest […] and placed into 0.5 ml saline. The suspension was then vortexed for 1 minute and then incubated at room temperature for one hour after. The solution was kept refrigerated until 30 minutes before the onset of surgery. The solution was allowed to warm to room temperature for 30 minutes prior to the surgery. Following this warming period, the solution was placed into a 1 cc insulin syringe for tail vein injection 1 minute prior to surgery.
Male Wistar rats (150-250 g) were fasted for 48 hours with free access to water. This fast was necessary to empty the gastrointestinal tract so that the Evans Blue introduced after the surgery could be accurately tracked. The rats were divided into groups in a randomized way. The randomized groups were then given isoflorane anesthesia, followed by clearing of the abdominal area with 10% antibacterial iodine solution and alcohol and shaving prior to surgery. Isoflorane was administered continuously (3-5%) using a vaporizer. […] Diethyl ether can also be used for anesthesia.
Thereafter, the rats received an i.v. injection (VIP receptor antagonists, PACAP receptor antagonists, or combination thereof were delivered in saline) in the tail vein of the appropriate drug or control for its group one minute before the operation. The peptides included VIP (10-28) and PACAP (6-38). The dosage amount of each peptide administered was approximately 150 μg per kg body weight. For the combination treatment a ratio of 1:1 of a PACAP receptor antagonist to VIP receptor antagonists was used, the total peptide amount being approximately 300 μg per kg body weight. The peptide dosages were consistent animal to animal throughout the study and were administered by bolus injections.
All groups underwent a laparotomy consisting of the incision of the abdominal skin, abdominal muscle layers and peritoneum. The laparatomy was followed by evisceration and manipulation of the small intestine and the caecum. In these experiments, the caecum and small intestine were gently pulled out of the abdominal cavity, unfurled like a fan and exposed on two sterile gauzes covering the abdomen of the rat. […]
Twenty minutes later, the rats were euthanized by an overdose pentobarbital (150 mg/kg i.v. tail vein) and the intestinal transit was measured from the pylorus to the most distal point of the migration of Evans blue and expressed in cm.

Row | Substance | % of the intestinal length traversed by Evan's Blue [%] | intestinal motility: distance Evan's Blue traveled through the intestines [cm]
1 | PACAP(6-38) (FTDSYSRYRKQMAVKKYLAAVLGKRYKQRVKNK; ends and bridges not checked; listed as Homo sapiens) [PACAP-RA] | 32 | 23
2 | VIP(10-28) (YTRLRKQMAVKKYLNSILN; listed as Homo sapiens) [VIP-RA] | 31 | 26
